From patent US20220339122A1, “METHODS FOR THE TREATMENT OF DISEASES ASSOCIATED WITH DYSREGULATED ACTIVATION AND RECRUITMENT OF NEUTROPHILS” (Chang Gung University, priority 2021, published 2022)

What was measured:
human neutrophils [1] = assay: Extracellular superoxide anion production in stimulated neutrophils (ferricytochrome c reduction); type: cell-based
Procedure: Extracellular superoxide anion production in activated neutrophils was assessed through the reduction of ferricytochrome c. After incubating them with Ca^2+ (1 mM) and ferricytochrome c (0.5 mg/mL) at 37° C., the isolated human neutrophils (6×10^5 cells/mL) were then incubated with 0.1% DMSO or 0.3-10 μM bletinib for 5 min. The cells were pretreated with cytochalasin B (CB, 1 or 2 μg/mL) for 3 min and stimulated with fMLF, MMK-1, or sodium fluoride (NaF), or directly activated with phorbol-12-myristate-13-acetate (PMA). The change in absorbance at 550 nm was detected continuously using a spectrophotometer (U-3010, Hitachi, Tokyo, Japan), and superoxide anion levels were calculated using a method described previously (Hwang et al., 2003 Mol. Pharmacol. 64(6), 1419-1427).

human neutrophils [2] = assay: Neutrophil elastase (NE) release (degranulation); type: cell-based
Procedure: Human neutrophils (6×10^5 cells/mL) were incubated with DMSO or bletinib after treatment with 1 mM CaCl2 and 100 μM NE substrate (Methoxysuccinyl-Ala-Ala-Pro-Val-p-nitroanilide) at 37° C. for 5 min. Cells were stimulated with fMLF/0.5 μg mL^−1 CB, leukotriene B4 (LTB4)/2 μg mL^−1 CB, NaF/2 μg mL^−1 CB, or MMK-1/0.5 μg mL-1 CB for 10 min before determination of NE release by measuring the change of absorbance at 405 nm in a spectrophotometer.

p-SFKs Y416 = assay: Immunoblotting of neutrophil lysates, SFKs phosphorylation; type: cell-based, human; conditions: 10 μM bletinib; 0.1 μM fMLF
Procedure: (§1) Neutrophils incubated with bletinib or DMSO at 37° C. for 5 min were stimulated with 0.1 μM fMLF for 30 s. The proteins were separated from neutrophil lysates through electrophoresis (12% sodium dodecyl sulphate-polyacrylamide gel electrophoresis) and then transferred to nitrocellulose membranes. The target proteins were identified through immunoblotting with specific antibodies against p38, p-p38, Akt, p-Akt S473, ERK, p-ERK, INK, p-JNK, Src, p-SFKs Y416, p-Src Y416, Lyn, p-Lyn (Y396), Fgr, p-Fgr (Y412), Hck, p-Hck (Y410), Btk, p-Btk Y223, Vav, and p-Vav (Y174) as well as with HRP-conjugated secondary anti-rabbit antibody (Cell Signaling Technology). The signal intensity was detected and quantified using the UVP BioSpectrum Imaging System (Analytik Jena, USA).

Vav (Y174) = assay: Immunoblotting of neutrophil lysates, Vav phosphorylation; type: cell-based, human; conditions: 0.1 μM fMLF-stimulated neutrophils
Procedure: as §1

CD11b (integrin αM) = assay: Surface CD11b expression, flow cytometry; type: cell-based, human
Procedure: Neutrophils (5×10^5 cells/mL) were incubated with bletinib or DMSO for 5 min and then activated through incubation with 0.1 μM fMLF/1 μg/mL CB for 5 min. After centrifugation at 200×g for 8 min at 4° C., the cells were resuspended in 5% bovine serum albumin with FITC-conjugated antibodies against CD18 or CD11b on ice in the dark for 15 min. The fluorescent intensity was then analysed through fluorescence-activated cell sorting.

BALB/c mice [3] = assay: LPS-induced ALI model in mice; type: in vivo; conditions: 25 mg/kg intraperitoneal
Procedure: A total of 24 male BALB/c mice were randomly divided into four groups (6 mice/group): vehicle alone, bletinib alone, LPS control, and bletinib treatment (bletinib+LPS). The mice were starved overnight and then intraperitoneally injected with 50 μL of bletinib (25 mg/kg) or 50 μL of vehicle (10% DMSO). ALI was induced through intratracheal spraying of 50 μL of LPS (from Escherichia coli O111:B4; 2 mg/kg) or 50 μL of 0.9% saline (in vehicle and bletinib alone group) under general anaesthesia with xylazine (6 mg/kg) and Zoletil 50 (30 mg/kg). Five hours later, mouse lungs were harvested after sacrifice and were frozen for myeloperoxidase (MPO) activity assay; they were also fixed with 10% formalin for histological sectioning and immunofluorescence staining.
The harvested lung tissues were washed with phosphate-buffered saline (PBS) and fixed with 10% formalin for 24 h. The samples were subsequently dehydrated, embedded with paraffin, sliced into 3-μm-thick sections with a microtome, and placed on glass slides. These sections were stained using haematoxylin and eosin (H&E) and corresponding antibodies. Then, images were acquired through light microscopy.
For immunofluorescence staining, tissue sections were incubated with antibodies against H3 (citH3; citrulline R2+R8+R17) and Ly6G at dilutions of 1:800 and 1:200, respectively. Anti-IgG secondary antibodies labelled with a fluorescent dye (Alexa Fluor 488 for citH3 or Alexa Fluor 568 for Ly6G) were used at dilutions of 1:1000 and 1:500, respectively. Immunofluorescence images were acquired through confocal microscopy (LSM 510 Meta, Zeiss).
The mouse lung tissues were suspended in a 0.5% hexadecyltrimethylammonium bromide buffer (pH 6.0) and then homogenised through sonication. To evaluate MPO activity, the MPO substrate buffer (containing PBS, 0.0005% hydrogen peroxide, and 0.2 mg/mL 0-dianisidine hydrochloride) was added to the homogenised tissue, and the light absorbance at 460 nm was detected by spectrophotometry, after which, MPO activity was calculated with reference to the standard curve of human MPO activity.

BALB/c mice [4] = assay: LPS-induced mortality model in mice; type: in vivo; conditions: 25 mg/Kg bletinib; LPS 5 mg/Kg; monitored 5 days; log-rank p=0.0085
Procedure: For the LPS-induced mortality model, mice were intraperitoneally injected with a single 50-μL dose of LPS (from Escherichia coli O111:B4; 5 mg/kg) or 0.9% saline (vehicle alone group). The mice were monitored for 5 days to determine the survival rate.

COc1cc(O)cc(CCc2c(Cc3ccc(O)cc3)ccc(O)c2Cc2ccc(O)cc2)c1 [bletinib, 3,3′-dihydroxy-2′,6′-bis(p-hydroxybenzyl)-5-methoxybibenzyl]
IC50 (human neutrophils [1]; Homo sapiens, Neutrophil, fMLF stimulation, bletinib preincubated 5 min, read-out: superoxide anion produced by fMLF-activated human neutrophils, IC50): 620 nM
superoxide anion release from neutrophils stimulated by MMK-1 (human neutrophils [1]; MMK-1 stimulation): attenuated
superoxide anion release from neutrophils stimulated by sodium fluoride (NaF) (human neutrophils [1]; NaF stimulation): attenuated
superoxide anion release from neutrophils stimulated by PMA (human neutrophils [1]; PMA stimulation): attenuated
IC50 (human neutrophils [2]; Homo sapiens, Neutrophil, fMLF/CB stimulation, read-out: release of NE in fMLF-stimulated human neutrophils, IC50): 530 ± 70 nM
NE release from neutrophils stimulated with LTB4 (human neutrophils [2]; LTB4/CB, 0.1-10 μM bletinib, concentration-dependent): downregulated
NE release from neutrophils stimulated with MMK-1 (human neutrophils [2]; MMK-1/CB, 0.1-10 μM bletinib, concentration-dependent): downregulated
NE release from neutrophils stimulated with NaF (human neutrophils [2]; NaF/CB, 0.1-10 μM bletinib, concentration-dependent): downregulated
phosphorylation of SFKs (p-SFKs Y416): significantly inhibited
phosphorylation of Vav (Y174) (Vav (Y174)): significantly inhibited
expression of CD11b in fMLF-stimulated human neutrophils (CD11b (integrin αM); 1-10 μM bletinib, 0.1 μM fMLF/CB): significantly attenuated
IL-8-induced CD11b expression (CD11b (integrin αM); IL-8, data not shown): restrained
MPO activity in the mouse lung tissues (BALB/c mice [3]; 5 h after LPS spraying): significantly ameliorated
total protein levels in the mouse lung tissues (BALB/c mice [3]; 5 h after LPS spraying): significantly ameliorated
LPS-activated phosphorylation of Vav (p-Vav) in lung sections (BALB/c mice [3]; intratracheal LPS for 5 h): attenuated
LPS-induced NET formation (Ly6G+citH3+ cell accumulation) in lung (BALB/c mice [3]; intratracheal LPS for 5 h): considerably reduced
distortion of the pulmonary architecture (lung histology) (BALB/c mice [3]; intratracheal LPS for 5 h): significantly suppressed
survival time of LPS-primed mice (BALB/c mice [4]): significantly prolonged
